Data set [1] can be described thus: Pharmacokinetic assay in mice. Format: in vivo. Particulars: ICR mice, 15 mg/kg, IV; for AUC(0-inf) / clearance / half-life / Vd: male, mouse, plasma; for AUC(0-inf): read-out: Area under curve AUC0-∞; for clearance: read-out: Clearance CL; for half-life: read-out: Half life T½ (converted); for Vd: read-out: Volume of distribution Vdss. As to the method:
ICR mice were used as test animals. The injected compounds 17 and 32 of the present disclosure were measured using the LC/MS/MS method to determine the drug concentrations in plasma at different times, in order to study the pharmacokinetic characteristics of the compounds of the present disclosure in mice.
ICR mice, male, weighing 27.8-38 g, were purchased from VitalRiver Laboratory Animal Technology Co., Ltd.
An appropriate amount of the pharmaceutical compound was weighed, added with an appropriate amount of 10% HP-β-CD, vortexed, sonicated for 20 minutes to dissolve the particles, and filtered (PTFE, […]) to obtain […] of a colorless solution.
ICR mice were divided into groups of injection of each test compound (nine mice in each group), fasted overnight, then administered by injection (IV, at an amount of 15 mg/kg and a volume of 5 mL/kg), and fed 4 hours after administration.
About 0.1 mL of blood was collected from the orbit before administration and 0.083 hours, 0.25 hours, 0.5 hours, 1 hour, 2 hours, 4 hours, 8 hours, 12 hours and 24 hours after administration. The whole blood samples were placed in EDTA-K2-containing anticoagulant tubes. After collected, the blood samples were placed on ice, and centrifuged to separate plasma (centrifugation conditions: 1500 g, 10 minutes). The collected plasma was stored at −40 to −20° C. before analysis.
The content of the compound to be tested in the plasma of mice after injection was determined using LC-MS/MS.

The test system of the next data set is E. coli ATCC 25922. Put plainly: Antibacterial activity, MIC by broth microdilution (CLSI). The settings on record: Escherichia coli, ATCC25922; E. coli ATCC 25922, 35° C., 18 to 24 hours; read-out: MIC(E. coli). It counts as cell-based. The essentials: (§1)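 Broth microdilution per CLSI, compound at 64-0.06 μg/mL final in twofold steps (1% DMSO from 100× working solutions). Inoculum 5×10^5 cfu/ml; plates incubated at 35° C for 18-24 hours.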
For orientation: In broth dilution the organism is exposed to a series of concentrations in liquid medium.

The subject of a further data set is K. pneumoniae ATCC13883. The description is as above. The settings on record: Klebsiella pneumoniae; K. pneumoniae ATCC13883, 35° C., 18 to 24 hours; read-out: MIC(K. Pneumoniae). Format: cell-based. The method in brief:
as §1

Data set [2] concerns the target recombinant Pseudomonas aeruginosa LpxC (Pseudomonas aeruginosa (strain ATCC 15692 / DSM 22644 / CIP 104116 / JCM 14847 / LMG 12228 / 1C / PRS 101 / PAO1), UniProt P47205). The data set is described as follows: Inhibition of LpxC enzymatic activity (fluorescamine assay). It counts as biochemical. Particulars: recombinant P. aeruginosa LpxC 5 nM, substrate 10 μM, 25° C., 120 minutes; read-out: IC50. The method in brief: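 Recombinant P. aeruginosa LpxC (5 nM) with substrate UDP-3-O-(R-3-hydroxydecanoyl)-GlcNAc (10 μM), 120 min at 25 °C; compound 8 points, 4-fold dilution, 0.61-10,000 nM. Product detected by fluorescamine (ex 390/em 495 nm) after stopping with pH 8.0 phosphate; % inhibition versus DMSO control.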

Data set [3] deals with Klebsiella pneumoniae ATCC 51504. Format: in vivo, CD-1 female mice. Particulars: CD-1 mice; for Change in the body weight of the mice / Reduction of total bacterial load of Klebsiella pneumoniae ATCC 51504 in the lungs compared with the control group: 150 mg/kg intravenous; for Bacterial load in lung, LOG (CFU/mouse), Mean: 150 mg/kg intravenous 2 hours after infection, lungs taken 24 hours after infection. As to the method: The efficacy of the compounds of the present disclosure against pulmonary infection caused by Klebsiella pneumoniae ATCC 51504 was determined by the following method. The experimental process is briefly described as follows: The experimental day of inoculating Klebsiella pneumoniae ATCC 51504 was defined as Day 0. On Day −4 and Day −1, CD-1 female mice (6-8 weeks old, purchased from VitalRiver Experimental Animal Technology Co., Ltd., divided into 3 groups, 5 animals in each group) were intraperitoneally injected with cyclophosphamide to induce an immunosuppressive state in mice. Klebsiella pneumoniae ATCC 51504 cells were cultured in advance on a Muaeller-Hinton agar culture plate in a 37° C. incubator overnight. The single colonies were collected, suspended in physiological saline, and adjusted to the required concentration using a turbidity meter. CD-1 female mice were inoculated via intranasal instillation. Each mouse was inoculated with 50 μL of bacterial solution, with an inoculation volume of 1×10^7 CFU/mouse. Two hours after infection, CD-1 female mice were intravenously administered with compound 17 and compound 32 at 150 mg/kg (solvent: 10% HP-β-CD in Sterile Water for Injection). 24 hours after infection, CD-1 female mice were euthanized. The lung tissue was taken, homogenized with physiological saline, and then diluted 10 times in a gradient for a total of 5 times. Then, 10 μL of lung tissue homogenate of each dilution ratio was taken, and inoculated into bacterial culture plates, which were incubated in a 37° C. incubator overnight, then photographed and saved. A culture plate with an appropriate dilution ratio was selected to count the number of colonies and calculate the bacterial load in the lung tissue to evaluate the efficacy of the drug in inhibiting bacteria. The determination results of the efficacy of the compounds of the present disclosure on pulmonary infection caused by Klebsiella pneumoniae are shown in Tables 4 and 5 below.

Molecules are shown by their SMILES. ≈ marks a conversion by molar mass, not a printed value.

For the molecule `C[C@H](O)c1nccn1Cc1cc(-c2ccc(C#Cc3ccc(CN4CCC(C(=O)O)CC4)cc3)cc2)on1` [Example 17, (S)-1-(4-((4-(3-((2-(1-hydroxyethyl)-1H-imidazol-1-yl)methyl)isoxazol-5-yl)phenyl)ethynyl)benzyl)piperidin-4-carboxylic acid], in data set [1], the “Pharmacokinetic properties (conclusion)” value was “good pharmacokinetic properties”, the AUC(0-inf) was 22500 ng·h/mL, the clearance was determined as 11.1 mL/min/kg and the half-life was 1.3 h. For the same molecule, the Vd in data set [1] worked out at 0.48 L/kg. Also, the MIC with E. coli ATCC 25922 amounted to 4 µg/mL (≈ 7.83 µM). In addition, the MIC in the data set with K. pneumoniae ATCC13883 is 8 µg/mL (≈ 15.7 µM). Besides, in data set [2], the IC50 was found to be 6.7 nM. Further, in data set [3], the “Change in the body weight of the mice” value is on record as “no significant change”; the “Reduction of total bacterial load of Klebsiella pneumoniae ATCC 51504 in the lungs compared with the control group” value came out at 4.78 log value; the “Bacterial load in lung, LOG (CFU/mouse), Mean” value is 4.17 LOG (CFU/mouse).
As for `C[C@H](O)c1nccn1Cc1cc(-c2ccc(C#Cc3ccc(CN4CC(CC(=O)O)C4)cc3)cc2)on1` [Example 32, (S)-2-(1-(4-((4-(3-((2-(1-hydroxyethyl)-1H-imidazol-1-yl)methyl)isoxazol-5-yl)phenyl)ethynyl)benzyl)azetidin-3-yl)acetic acid], in data set [1], the “Pharmacokinetic properties (conclusion)” value is recorded as “good pharmacokinetic properties”, the AUC(0-inf) was found to be 20300 ng·h/mL, the clearance amounted to 12.3 mL/min/kg and the half-life is 1.21 h. In addition, the Vd in data set [1] worked out at 0.612 L/kg. Further, the MIC in the data set with E. coli ATCC 25922 stood at 2 µg/mL (≈ 4.03 µM). Besides, in the data set with K. pneumoniae ATCC13883, the MIC stood at 4 µg/mL (≈ 8.06 µM). The IC50 in data set [2] was determined as 19.8 nM. Further, in data set [3], the “Change in the body weight of the mice” value is on record as “no significant change”; the “Reduction of total bacterial load of Klebsiella pneumoniae ATCC 51504 in the lungs compared with the control group” value came to 4.24 log value; the “Bacterial load in lung, LOG (CFU/mouse), Mean” value is listed as 4.42 LOG (CFU/mouse).
With `C[C@H](O)c1nccn1Cc1cc(-c2ccc(C#Cc3ccc(CN4CC(CC(=O)O)C4)nc3)cc2)on1` [Example 115, (S)-2-(1-((5-((4-(3-((2-(1-hydroxyethyl)-1H-imidazol-1-yl)methyl)isoxazol-5-yl)phenyl)ethynyl)pyridin-2-yl)methyl)azetidin-3-yl)acetic acid], the MIC in the data set on E. coli ATCC 25922 was determined as 2 µg/mL (≈ 4.02 µM); in the data set with K. pneumoniae ATCC13883, 8 µg/mL (≈ 16.1 µM). Moreover, in data set [2], the half-maximal inhibitory concentration (IC50) turned out to be 24.5 nM.

For orientation: clearance means the rate of elimination divided by the concentration. By half-life is commonly meant the time needed for the level to fall by half in the phase considered. A word on the MIC: it is the smallest concentration in the dilution series that meets the test's criterion for growth inhibition. By IC50 is commonly meant the concentration needed to halve the response being measured.

(Values after patent US20240382465A1, “AROMATIC ACETYLENE DERIVATIVE, AND PREPARATION METHOD THEREFOR AND USE THEREOF” (priority 2021, published 2024).)
